Laboratory results as given in patent publication US20120082631A1, “COMPOSITIONS” (priority 2009, published 2012).

Assay: Sensory panel astringency ranking after brushing with toothpaste samples
Type: in vivo
Details: for astringency ratings compared to those of the standard toothpaste base and the current market product: flavour material at 1000 ppm in toothpaste base with 0.75% zinc citrate, statement in words; for Astringency Rating (0-10): mean rating by a panel of three trained experts, 0 = no astringency, 10 = strong astringency, ingredients at 1000 ppm (0.1% w/w) in Standard Toothpaste Base with 0.75% Zinc Citrate, 30 seconds brushing, spit out, one water rinse
Protocol: Differing flavour ingredients were added, at a concentration of 1000 ppm, to a non-flavoured toothpaste base containing 0.75% zinc citrate (ZCT).
Measured samples, of equal weight, of the non-flavoured toothpaste base containing 0.75% ZCT and the same toothpaste base modified with flavour ingredients were then placed on toothbrushes. The samples were tested by a panel of three independent trained experts. The panelists were instructed to brush their teeth for 30 seconds, spit out and rinse once with water. The subjects were then asked to rank the astringency on a scale of 0 to 10 for each sample, 0 representing no astringency and 10 representing strong astringency. A current market product was also tested in the same way.
Table 1 lists the flavour ingredients added to the non-flavoured toothpaste base containing 0.75% zinc citrate, along with the mean astringency rating of each sample. Also included in table 1 is the mean astringency rating of the non-flavoured toothpaste base containing 0.75% ZCT and the current market product.

SMILES	astringency ratings compared to those of the standard toothpaste base and the current market product	Astringency Rating (0-10)
CC1=C(O)C(=O)CC1 [Cyclotene, 2-hydroxy-3-methyl-2-cyclopenten-1-one]	significantly lower astringency ratings	4.5
CCc1occc(=O)c1O [Ethyl Maltol, 2-ethyl-3-hydroxy-4H-pyran-4-one]	significantly lower astringency ratings	3.5
Cc1occc(=O)c1O [Maltol, 3-hydroxy-2-methyl-4H-pyran-4-one]	significantly lower astringency ratings	3.8
COc1cc(C=O)ccc1O [Vanillin, reference compound]		6.5
